# Laboratory results from patent US8975400B2, “2,3-dihydroimidazo[1, 2-c] pyrimidin-5(1 H)-one compounds use as LP-PLA2 inhibitors” (Glaxo Group Limited, priority 2011, dated 2015).
# Structures can show the parent of a compound that is named as a salt.
# Assays:
# Lp-PLA2 in human plasma = target: T1, Lp-PLA2 in human plasma (Homo sapiens, UniProt Q13093); experiment: Lp-PLA2 human plasma assay (Thio-PAF assay); assay type: biochemical; conditions: pooled human plasma, 2-thio-PAF substrate; read-out: pIC50 in the thio-PAF assay (converted)
# T1 construct: This assay may detect the activity of Lp-PLA2 in human plasma; from tissue; host or cells: pooled human plasma
# T1 sequence (Q13093 22-441): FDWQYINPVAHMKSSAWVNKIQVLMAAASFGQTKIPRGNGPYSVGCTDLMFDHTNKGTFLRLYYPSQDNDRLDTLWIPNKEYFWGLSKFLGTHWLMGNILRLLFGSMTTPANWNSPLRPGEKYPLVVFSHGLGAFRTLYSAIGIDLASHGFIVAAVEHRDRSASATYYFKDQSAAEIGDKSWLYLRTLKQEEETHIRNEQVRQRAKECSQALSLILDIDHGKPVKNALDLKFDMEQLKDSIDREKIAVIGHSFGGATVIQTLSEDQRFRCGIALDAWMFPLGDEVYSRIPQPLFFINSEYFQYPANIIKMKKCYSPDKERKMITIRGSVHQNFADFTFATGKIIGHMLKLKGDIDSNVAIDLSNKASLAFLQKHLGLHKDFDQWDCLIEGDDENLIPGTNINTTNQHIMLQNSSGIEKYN
# From the text: (3) Lipoprotein-Associated Phospholipase A2 (Lp-PLA2) Human Plasma Assay (Also Referred to as “Thio-PAF Assay”)
# The human plasma assay utilizes a thioester analog of PAF (phosphatidylcholine), where hydrolysis yields to the formation of a phospholipid containing a free thiol group. The amount of thiol is quantitated continuously by reacting with CPM (7-diethylamino-3-(4′-maleimidylphenyl)-4-methylcoumarin), a maleimide which increases in fluoresence after Michael addition of thiols. This assay may detect the activity of Lp-PLA2 in human plasma, as determined by specific inhibition by Lp-PLA2 inhibitors.
# The thio-PAF assay was run as a quenched 15 μL assay. Compounds source plate was prepared by making 1:3 (by volume) serial dilution of the compounds into pure DMSO on 384-well microplate. 0.01 μL of compounds on compound source plate were transferred to 384 well Greiner 784076 (black) low-volume plates by ECHO liquid dispenser. 8 μL pooled human plasma, which was previously aliquoted and frozen, was added. Plates were centrifuged for 10 sec at 500 rpm. After 30 minutes preincubation, 2 μL of substrate solution comprising 2.5 mM 2-thio-PAF [from ethanol stock], 32 μM CPM [from a DMSO stock] and 3.2 mM NEM (N-ethylmaleimide) [made fresh daily in DMSO] in assay buffer of 50 mM HEPES, pH 7.4, 150 mM NaCl, 1 mM CHAPS was added to 384 well Greiner 784076 (black) low-volume plates by BRAVO liquid handling station. After 2 mins, reaction was quenched with 5 μL of 5% aqueous trifluoroacetic acid (TFA). Plates were covered to protect from light and incubated for 40 min at room temperature. Plates were read at ex: 380/em: 485 using-Envision microplate reader. pIC50 data, curve and QC analysis was conducted by using XLFit module in Excel.
# [1] = target: T2, recombinant human Lp-PLA2 (Homo sapiens, UniProt Q13093); experiment: Recombinant human Lp-PLA2 assay (rhLp-PLA2, PED6 assay); assay type: biochemical; conditions: recombinant human Lp-PLA2, PED6 substrate; upper limit for pIC50 in this assay is 9.3
# T2 sequence (Q13093 22-441): T1 sequence (Q13093 22-441)
# From the text: (1) Recombinant Human Lp-PLA2 Assay (rhLp-PLA2) (Also Referred to as “PED6” Assay)
# N-((6-(2,4-dinitrophenyl)amino)-hexanoyl)-2-(4,4-difluoro-5,7-dimethyl-4-bora-3a,4a-diaza-s-indacene-3-pentanoyl)-1-hexadecanoyl-sn-glycero-3-phosphoethanolamine, triethylammonium salt (PED6) is a commercially available fluorescently-labeled phospholipid, which is commercially available from Invitrogene and Molecular Probes. There is a quenching […] and a Bodipy fluorescein (FL) group in the sn2 position. Upon cleavage with Lp-PLA2, the Bodipy FL group is liberated and then may result in an increase in fluorescence. Inhibitors of Lp-PLA2 therefore prevent this cleavage and no fluorescent increase is observed.
# The PED6 assay was run as an unquenched 10 μL assay. The source plate containing the compounds to be tested was prepared by making 1:3 (by volume) serial dilution of the compounds within DMSO on 384-well microplate. Then, 0.01 μL of the compounds on compound source plate were transferred into 384 well Greiner 784076 (black) plates using ECHO liquid dispenser. 5 µL of recombinant human Lp-PLA2 enzyme (4 nM (or 110 pM) rhLp-PLA2 in assay buffer of 50 mM HEPES, pH 7.4, 150 mM NaCl, 1 mM CHAPS) was added to each well of the plate. Plates were centrifuged for 10 sec at 500 rpm. After 30 minutes preincubation, 5 µL of substrate (4 μM (or 5 μM) PED6 [from 5 mM DMSO stock] in assay buffer of 50 mM HEPES, pH 7.4, 150 mM NaCl, 1 mM CHAPS) was added to 384 well Greiner 784076 (black) plates. Plates were centrifuged for 10 sec at 500 rpm. The plate was covered to protect it from light and incubated for 20 min at room temperature. The plates were read for fluorescence intensity at ex: 480/em: 540 using ViewLux microplate imager for Envision spectrofluroimeters pIC50 data, curve and QC analysis was conducted by using XL fit module in Excel.
# The compounds described below were tested generally according to the PED6 assay described above.
SMILES,IC50 (Lp-PLA2 in human plasma) [nM],IC50 [1] [nM]
"N#Cc1cc(COc2cc3n(c(=O)n2)CCN3)ccc1Oc1ccc(C#N)c(C(F)(F)F)c1 [Example 88, 4-(2-cyano-4-(((5-oxo-1,2,3,5-tetrahydroimidazo[1,2-c]pyrimidin-7-yl)oxy)methyl)p-henolxy)-2-(trifluoromethyl)benzonitrile]",≤ 100,2
"O=c1nc(OCc2ccc(Oc3ccc(Cl)c(C(F)(F)F)c3)cc2)cc2n1CCN2 [Example 89, 7-((4-(4-chloro-3-(trifluoromethyl)phenoxy)benzyl)oxy)-2,3-dihydroimidazo[1,2-c]pyrimidin-5(1H)-one]",≤ 1000,≤ 10
"N#Cc1cc(COc2cc3n(c(=O)n2)CCN3)ccc1Oc1ccnc(C(F)(F)F)c1 [Example 91, 5-(((5-oxo-1,2,3,5-tetrahydroimidazo[1,2-c]pyrimidin-7-yl)oxy)methyl)-2-((2-(trifluoromethyl)pyridin-4-yl)oxy)benzonitrile]",≤ 100,≤ 10
"N#Cc1cc(COc2cc3n(c(=O)n2)CCN3)ccc1Oc1ccc(C(F)(F)F)nc1 [Example 93, 5-(((5-oxo-1,2,3,5-tetrahydroimidazo[1,2-c]pyrimidin-7-yl)oxy)methyl)-2-((6-(trifluoromethyl)pyridin-3-yl)oxy)benzonitrile, trifluoroacetic acid salt]",≤ 100,≤ 10
"CN1CCn2c1cc(OCc1ccc(Oc3ccnc(C(F)(F)F)c3)c(F)c1)nc2=O [Example 94, 7-((3-fluoro-4-((2-(trifluoromethyl)pyridin-4-yl)oxy)benzyl)oxy)-1-methyl-2,3-dihydroimidazo[1,2-c]pyrimidin-5(1H)-one]",≤ 100,1.58
"CN1CCn2c1cc(OCc1ccc(Oc3ccc(C#N)c(F)c3)c(C#N)c1)nc2=O [Example 95, 4-(2-cyano-4-(((1-methyl-5-oxo-1,2,3,5-tetrahydroimidazo[1,2-c]pyrimidin-7-yl)oxy)methyl)phenoxy)-2-fluorobenzonitrile]",≤ 100,1.26
"N#Cc1cc(COc2cc3n(c(=O)n2)CCN3)ccc1Oc1ccc(Cl)c(C(F)(F)F)c1 [Example 96, 2-(4-chloro-3-(trifluoromethyl)phenoxy)-5-(((5-oxo-1,2,3,5-tetrahydroimidazo[1,2-c]pyrimidin-7-yl)oxy)methyl)benzonitrile]",≤ 100,≤ 10
"CN1CCn2c1cc(OCc1cc(F)c(Oc3cc(F)cc(F)c3)c(F)c1)nc2=O [Example 99, 7-((4-(3,5-difluorophenoxy)-3,5-difluorobenzyl)oxy)-1-methyl-2,3-dihydroimida-zo[1,2-c]pyrimidin-5(1H)-one]",≤ 1000,≤ 10
"CN1CCn2c1cc(OCc1ccc(Oc3ccc(Cl)nc3)c(C#N)c1)nc2=O [Example 100, 2-((6-chloropyridin-3-yl)oxy)-5-(((1-methyl-5-oxo-1,2,3,5-tetrahydroimidazo[1,2-c]pyrimidin-7-yl)oxy)methyl)benzonitrile]",≤ 1000,≤ 10
"CN1CCn2c1cc(OCc1ccc(Oc3ccc(Cl)c(C(F)(F)F)c3)c(C#N)c1)nc2=O [Example 101, 2-(4-chloro-3-(trifluoromethyl)phenoxy)-5-(((1-methyl-5-oxo-1,2,3,5-tetrahydro-imidazo[1,2-c]pyrimidin-7-yl)oxy)methyl)benzonitrile, trifluoroacetic acid salt]",≤ 100,≤ 1
"CN1CCn2c1cc(OCc1cc(F)c(Oc3cccc(C(F)(F)F)c3)c(F)c1)nc2=O [Example 102, 7-((3,5-difluoro-4-(3-(trifluoromethyl)phenoxy)benzyl)oxy)-1-methyl-2,3-dihydroimidazo[1,2-c]pyrimidin-5(1H)-one]",≤ 100,≤ 1
"CN1CCn2c1cc(OCc1ccc(Oc3ccc(Cl)nc3)c(F)c1)nc2=O [Example 103, 7-((4-((6-chloropyridin-3-yl)oxy)-3-fluorobenzyl)oxy)-1-methyl-2,3-dihydroimid-azo[1,2-c]pyrimidin-5(1H)-one, trifluoroacetic acid salt]",≤ 100,≤ 10
"CN1CCn2c1cc(OCc1cc(F)c(Oc3cccc(C#N)c3)c(F)c1)nc2=O [Example 104, 3-(2,6-difluoro-4-(((1-methyl-5-oxo-1,2,3,5-tetrahydroimidazo[1,2-c]pyrimidin-7-yl)oxy)methyl)phenoxy)benzonitrile]",≤ 1000,≤ 10
"CN1CCn2c1cc(OCc1ccc(Oc3ccnc(Cl)c3)c(C#N)c1)nc2=O [Example 107, 2-((2-chloropyridin-4-yl)oxy)-5-(((1-methyl-5-oxo-1,2,3,5-tetrahydroimidazo[1,2-c]pyrimidin-7-yl)oxy)methyl)benzonitrile]",≤ 1000,≤ 10
"CN1CCn2c1cc(OCc1ccc(Oc3ccnc(Cl)c3)c(F)c1)nc2=O [Example 109, 7-((4-((2-chloropyridin-4-yl)oxy)-3-fluorobenzyl)oxy)-1-methyl-2,3-dihydroimidaz-o[1,2-c]pyrimidin-5(1H)-one]",≤ 1000,≤ 10
"CN1CCn2c1cc(OCc1ccc(Oc3cc(F)cc(F)c3)c(C#N)c1)nc2=O [Example 111, 2-(3,5-difluorophenoxy)-5-(((1-methyl-5-oxo-1,2,3,5-tetrahydroimidazo[1,2-c]pyri-midin-7-yl)oxy)methyl)benzonitrile]",≤ 1000,≤ 10
"CN1CCn2c1cc(OCc1ccc(Oc3ccc(Cl)c(C#N)c3)c(C#N)c1)nc2=O [Example 114, 2-chloro-5-(2-cyano-4-(((1-methy-5-oxo-1,2,3,5-tetrahydroimidazo[1,2-c]pyrimidin-7-yl)oxy)methyl)phenoxy)benzonitrile]",≤ 100,≤ 10
"CN1CCn2c1cc(OCc1ccc(Oc3cncc(C(F)(F)F)c3)c(C#N)c1)nc2=O [Example 115, 5-(((1-methyl-5-oxo-1,2,3,5-tetrahydroimidazo[1,2-c]pyrimidin-7-yl)oxy)methyl)-2-((5-(trifluoromethyl)pyridin-3-yl)oxy)benzonitrile, trifluoroacetic acid salt]",≤ 100,3.98
CN1CCn2c1cc(OCc1ccc(Oc3cc(F)cc(C(F)(F)F)c3)c(C#N)c1)nc2=O [Example 116],≤ 100,≤ 1
"O=c1nc(OCc2cc(F)c(Oc3ccc(F)cc3)c(F)c2)cc2n1CCN2 [Example E74, 7-((3,5-difluoro-4-(4-fluorophenoxy)benzyl)oxy)-2,3-dihydroimidazo[1,2-c]pyrimidin-5(1H)-one]",–,≤ 10
